Reference: US11446287B2, “Compounds and methods for EP300 or CBP modulation and indications therefor” (Opna Immuno-Oncology SA, priority 2019, dated 2022)

Molecular target: T1, Recombinant human EP300 containing the bromodomain (EP300-BD (1040-1161)) (Homo sapiens, UniProt Q09472)
T1 construct: Recombinant human EP300 bromodomain (EP300-BD (1040-1161)); made in house; host or cells: E. coli BL21-CodonPlus (DE3), modified pET vector
T1 sequence (Q09472 1040-1161): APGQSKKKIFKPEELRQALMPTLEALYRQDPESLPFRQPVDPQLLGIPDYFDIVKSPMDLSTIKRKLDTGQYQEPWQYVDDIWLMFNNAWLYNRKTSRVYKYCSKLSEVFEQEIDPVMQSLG
Assay: EP300 Alphascreen binding assay
Experimental: EP300 Alphascreen Binding Assay
Binding of compounds of Formula (I) with EP300 was assessed using Alphascreen™ binding assay. The inhibition of the interaction between the EP300 bromodomain and its acetylated target protein was measured quantitatively using recombinant EP300 protein, an acetylated Histone 3 peptide and AlphaScreen™ technology. In absence of inhibition of the EP300 protein bound to AlphaScreen™ nickel chelate acceptor beads can interact with the acetylated Histone 3 peptide which is immobilized by the AlphaScreen™ Streptavidin coated beads. This interaction brings donor and acceptor beads in proximity. The close proximity allows the singlet oxygen produced by laser excitation of the donor beads to reach the acceptor beads and generate a luminescence signal. EP300 inhibitors result in a decrease in the proximity signal through an inhibition of the EP300—acetylated peptide interaction.
Recombinant human EP300 containing the bromodomain (EP300-BD (1040-1161)) was prepared and purified as described in protein expression and purification session. The peptide is human Histone H345-64K56Ac-Biotin (Anaspec CA, USA).
Protocol for EP300 assay: All components were prepared in buffer composed of 50 mM HEPES pH 7.5, 50 mM NaCl, 0.01% BSA, 0.01% Triton X-100, 2 mM DTT. Test compounds and DMSO vehicle were diluted 1:50 in buffer and a 4 μL volume is transferred to an Alphaplate. 5.5 μL of EP300 protein and 5.5 μL of peptide were added to wells containing 4 μL of various concentrations of test compounds of Formula (I) or DMSO vehicle in an Alphaplate (PerkinElmer GA, USA) and incubated for 1 hour at room temperature. 5 μL donor and acceptor bead mixture was then added with final concentrations of 7.5 μg/ml. 60 minutes after bead addition, Alpha signal is read on the Envision spectrometer (λEx 680 nm, λEm 520-620 nm). Final concentrations of bromodomain proteins and peptide are as shown below.
All data were normalized to the mean of 16 high and 16 low control wells on each plate. A four parameter curve fit of the following formula was then applied: Y=A+((B−A)/(1+((C/x)^D))) Where ‘A’ is the minimum, ‘B’ is the maximum, ‘C’ is the IC50 and ‘D’ is the Hill slope. Protein Expression and Purification
Recombinant human EP300 bromodomain (EP300-BD (1040-1161)) was expressed in E. coli cells (in a modified pET vector) with an N-terminal six-His tag and purified using a combination of both IMAC (Ni-affinity) and size exclusion chromatography steps.
Recombinant EP300 protein was expressed using the E. coli strain BL21-CodonPlus (DE3) (Agilent Technologies CA, USA). Cells were grown in Terrific Broth (TB) media to an OD600 of 0.7 at 37° C. at which temperature was reduced to 18° C., protein was induced with 1.0 mM isopropyl-β-D-thiogalactopyranoside (“IPTG”) for 20 hours and harvested by centrifugation at 8500×g for 20 minutes. Cells were re-suspended in 0.1M K2PO4 pH 8.0, 250 mM NaCl, 10% Glycerol, 0.75% NP-40, 25 mM Imidazole, with 0.2 mg/ml Lysozyme, 0.2 mM phenylmethanesulfonyl fluoride (“PMSF”), 25 μg/ml DNase I, incubated on ice for 30 minutes and lysed with a cell disruptor (MicroFluidics MA, USA). The lysate was clarified by centrifugation at 20,000×g for 1 hour. The protein was captured with Ni-NTA resin (Life Technologies, USA). Contaminating proteins were washed off with 50 mM HEPES pH 7.5, 500 mM NaCl, and 5% Glycerol. Following 3× wash steps, protein was eluted step wise using 10, 25, 50, 100, 150, and 250 mM Imidazole in 50 mM HEPES pH 7.5, 500 mM NaCl, and 5% glycerol. The protein was further purified using a size exclusion column (26/600 Superdex 200, GE Biosciences NJ, USA) in 10 mM HEPES pH 7.5, […].

Row | Structure (SMILES) | IC50 [µM]
1 | CCOc1cc(C(=O)O)ccc1-c1cn([C@@H](C)c2ccccn2)c2ncc(-c3c(C)noc3C)cc12 [P-0114, (S)-4-(5-(3,5-dimethylisoxazol-4-yl)-1-(1-(pyridin-2-yl)ethyl)-1H-pyrrolo[2,3-b]pyridin-3-yl)-3-ethoxybenzoic acid] | 0.0001 to 1
2 | Cc1noc(C)c1-c1cnc2c(c1)c(-c1ccc(C(=O)O)cc1OCC(F)(F)F)cn2[C@@H](C)c1ccccn1 [P-0115, (S)-4-(5-(3,5-dimethylisoxazol-4-yl)-1-(1-(pyridin-2-yl)ethyl)-1H-pyrrolo[2,3-b]pyridin-3-yl)-3-(2,2,2-trifluoroethoxy)benzoic acid] | 0.0001 to 1
3 | Cc1noc(C)c1-c1cnc2c(c1)c(-c1ccc(C(=O)O)cc1C(F)(F)F)cn2[C@@H](C)c1ccccn1 [P-0116, (S)-4-(5-(3,5-dimethylisoxazol-4-yl)-1-(1-(pyridin-2-yl)ethyl)-1H-pyrrolo[2,3-b]pyridin-3-yl)-3-(trifluoromethyl)benzoic acid] | 0.0001 to 1
4 | CCCOc1cc(C(=O)O)cc(OCCC)c1-c1cn([C@@H](C)c2ccccn2)c2ncc(-c3c(C)noc3C)cc12 [P-0117, (S)-4-(5-(3,5-dimethylisoxazol-4-yl)-1-(1-(pyridin-2-yl)ethyl)-1H-pyrrolo[2,3-b]pyridin-3-yl)-3,5-dipropoxybenzoic acid] | 0.0001 to 1
5 | Cc1noc(C)c1-c1cnc2c(c1)c(-c1c(OC(C)C)cc(C(=O)O)cc1OC(C)C)cn2[C@@H](C)c1ccccn1 [P-0118, (S)-4-(5-(3,5-dimethylisoxazol-4-yl)-1-(1-(pyridin-2-yl)ethyl)-1H-pyrrolo[2,3-b]pyridin-3-yl)-3,5-diisopropoxybenzoic acid] | 0.0001 to 1
6 | COc1cc(C(=O)O)cc(OC)c1-c1cn(C(C)c2ccccc2)c2cc(-c3c(C)noc3C)cnc12 (stereo not shown) [P-0119, 4-(6-(3,5-dimethylisoxazol-4-yl)-1-(1-phenylethyl)-1H-pyrrolo[3,2-b]pyridin-3-yl)-3,5-dimethoxybenzoic acid] | 0.0001 to 1
7 | Cc1noc(C)c1-c1cnc2c(-c3ccccc3C(=O)O)cn(C(C)c3ccccc3)c2c1 (stereo not shown) [P-0120, 2-(6-(3,5-dimethylisoxazol-4-yl)-1-(1-phenylethyl)-1H-pyrrolo[3,2-b]pyridin-3-yl)benzoic acid] | 0.0001 to 1
8 | Cc1noc(C)c1-c1cnc2c(C(=O)C3CCC3)cn(-c3c(Cl)cc(C(=O)O)cc3Cl)c2c1 [P-0121, 3,5-dichloro-4-(3-(cyclobutanecarbonyl)-6-(3,5-dimethylisoxazol-4-yl)-1H-pyrrolo[3,2-b]pyridin-1-yl)benzoic acid] | 0.0001 to 1
9 | Cc1noc(C)c1-c1cnc2c(c1)c(-c1cccc(C(=O)O)n1)cn2C(C)c1ccccn1 (stereo not shown) [P-0122, 6-(5-(3,5-dimethylisoxazol-4-yl)-1-(1-(pyridin-2-yl)ethyl)-1H-pyrrolo[2,3-b]pyridin-3-yl)picolinic acid] | 1 to 8
10 | Cc1noc(C)c1-c1cnc2c(c1)c(-c1ccc(C(=O)O)cn1)cn2C(C)c1ccccn1 (stereo not shown) [P-0123, 6-(5-(3,5-dimethylisoxazol-4-yl)-1-(1-(pyridin-2-yl)ethyl)-1H-pyrrolo[2,3-b]pyridin-3-yl)nicotinic acid] | 0.0001 to 1
11 | Cc1noc(C)c1-c1cnc2c(c1)c(-c1cc(C(=O)O)ccn1)cn2C(C)c1ccccn1 (stereo not shown) [P-0124, 2-(5-(3,5-dimethylisoxazol-4-yl)-1-(1-(pyridin-2-yl)ethyl)-1H-pyrrolo[2,3-b]pyridin-3-yl)isonicotinic acid] | 0.0001 to 1
12 | Cc1noc(C)c1-c1cnc2c(c1)c(-c1ccc(F)c(C(=O)O)c1F)cn2[C@@H](C)c1ccccn1 [P-0125, (S)-3-(5-(3,5-dimethylisoxazol-4-yl)-1-(1-(pyridin-2-yl)ethyl)-1H-pyrrolo[2,3-b]pyridin-3-yl)-2,6-difluorobenzoic acid] | 0.0001 to 1
13 | Cc1noc(C)c1-c1cnc2c(c1)c(-c1ccnc(C(=O)O)n1)cn2C(C)c1ccccn1 (stereo not shown) [P-0126, 4-(5-(3,5-dimethylisoxazol-4-yl)-1-(1-(pyridin-2-yl)ethyl)-1H-pyrrolo[2,3-b]pyridin-3-yl)pyrimidine-2-carboxylic acid] | 0.0001 to 1
